Experiment [1] addresses hNAMPT protein (Homo sapiens (Human), UniProt P43490). Kind of experiment: NAMPT enzyme assay (TR-FRET/HTRF with BodiPY ligand). Format: binding. The following applies: for inhibition at 1 µM: NAMPT inhibition at compound concentration 1 μM; for pIC50: NAMPT inhibition, IC50 range class. In outline:
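Ligand displacement by TR-FRET: BodiPY emission (520 nm) over terbium (486 nm) after 320 nm excitation. Compound, BodiPY ligand, hNAMPT and anti-6His-Tb incubated 1 h at room temperature, dark, at pH 7.5. Percent inhibition computed versus DMSO; concentration-response curves fitted for IC50.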
Background: In TR-FRET formats the signal depends on donor and acceptor labels being close together.

In experiment [2] the test system is PC3 cells. Kind of experiment: PC3 growth inhibition (Cell-titer glo, 72 hours). Format: cell-based. Particulars: Homo sapiens, PC-3, 72 h, read-out: Percent Viability, PC3 cells, compound concentration 1.667 μM, 72 hours. In outline:
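After 72 h compound treatment in AIM serum-free medium (37 °C, 5% CO2), viability of overnight-plated PC3 cells (8×10^4 cells/ml, RPMI1640-maintained) is read by CellTiter-Glo luminescence versus DMSO. Curves give GI50, LD50 or single-concentration % remaining viability.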

pIC50: −log10 of the molar value. A value given as a limit tells only on which side of the number the result lay.

hNAMPT protein, sequence (P43490 whole entry): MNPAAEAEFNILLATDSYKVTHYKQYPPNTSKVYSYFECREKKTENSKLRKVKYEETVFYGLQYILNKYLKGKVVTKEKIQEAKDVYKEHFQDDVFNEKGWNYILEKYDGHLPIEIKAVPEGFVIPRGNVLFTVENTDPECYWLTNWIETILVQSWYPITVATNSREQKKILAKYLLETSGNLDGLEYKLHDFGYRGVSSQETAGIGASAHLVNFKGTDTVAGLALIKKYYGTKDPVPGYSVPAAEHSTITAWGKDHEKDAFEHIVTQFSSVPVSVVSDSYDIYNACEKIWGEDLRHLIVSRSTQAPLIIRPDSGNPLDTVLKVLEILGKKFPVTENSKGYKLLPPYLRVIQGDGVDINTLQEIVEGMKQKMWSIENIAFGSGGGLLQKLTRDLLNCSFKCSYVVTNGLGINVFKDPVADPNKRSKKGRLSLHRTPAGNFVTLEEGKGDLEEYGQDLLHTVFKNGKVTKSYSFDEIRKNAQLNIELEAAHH

For `CCOc1cc(-c2ccc(F)cc2)nc2cc(C(=O)NCCCn3cccn3)ccc12` [Compound I-43, 4-ethoxy-2-(4-fluorophenyl)-N-[3-(1H-pyrazol-1-yl)propyl]quinoline-7-carboxamide], the inhibition (in general, the drop in the measured response relative to a control, in per cent) at 1 µM in experiment [1] (read-out: Percent Inhibition) is 99%. Further, in experiment [1], the pIC50 (usually the negative decadic logarithm of the IC50, by convention in mol/L) was more than 8.00. Further, the viability at 1.667 µM in experiment [2] amounted to 77%.

On to `CCOc1cc(-c2ccc(F)cc2)nc2cc(C(=O)NCCCc3nccs3)ccc12` [Compound I-44, 4-ethoxy-2-(4-fluorophenyl)-N-[3-(1,3-thiazol-2-yl)propyl]quinoline-7-carboxamide], for which, in experiment [1] (read-out: Percent Inhibition), the inhibition at 1 µM was 97%. Further, the pIC50 in experiment [1] is more than 8.00. In addition, in experiment [2], the viability at 1.667 µM was found to be 58%.

In the case of `CCOc1cc(-c2ccc(F)cc2)nc2cc(C(=O)NCCCc3ccnnc3)ccc12` [Compound I-45, 4-ethoxy-2-(4-fluorophenyl)-N-[3-(pyridazin-4-yl)propyl]quinoline-7-carboxamide], the inhibition at 1 µM in experiment [1] (read-out: Percent Inhibition) stood at 100%. This molecule had a pIC50 in experiment [1] of more than 8.00. Further, the viability at 1.667 µM in experiment [2] was determined as 8%.

For `CCOc1cc(-c2ccc(F)cc2)nc2cc(C(=O)NCCc3ccn[nH]3)ccc12` [Compound I-46, 4-ethoxy-2-(4-fluorophenyl)-N-[2-(1H-pyrazol-5-yl)ethyl]quinoline-7-carboxamide], in experiment [1] (read-out: Percent Inhibition), the inhibition at 1 µM was 97%. In experiment [1], this molecule gave a pIC50 of 7.30 to 8.00. The viability at 1.667 µM in experiment [2] came to 3%.

As for `CCOc1cc(-c2ccc(F)cc2)nc2cc(C(=O)NCCc3ccc(C#N)cc3)ccc12` [Compound I-47, N-[2-(4-cyanophenyl)ethyl]-4-ethoxy-2-(4-fluorophenyl)quinoline-7-carboxamide], the inhibition at 1 µM in experiment [1] (read-out: Percent Inhibition) was 47%. This molecule showed a pIC50 in experiment [1] of more than 8.00. Moreover, the viability at 1.667 µM in experiment [2] was 99%.

With `CCOc1cc(-c2ccc(F)cc2)nc2cc(C(=O)NCCc3cn[nH]c3)ccc12` [Compound I-48, 4-ethoxy-2-(4-fluorophenyl)-N-[2-(1H-pyrazol-4-yl)ethyl]quinoline-7-carboxamide], in experiment [1] (read-out: Percent Inhibition), the inhibition at 1 µM is 97%. For the same molecule, the pIC50 in experiment [1] is 7.30 to 8.00. Also, in experiment [2], the viability at 1.667 µM stood at 4%.

In the case of `CCOc1cc(SCC)nc2cc(C(=O)NCCCc3ncc[nH]3)ccc12` [Compound I-49, N-(3-(1H-Imidazol-2-yl)propyl)-4-ethoxy-2-(ethylthio)quinoline-7-carboxamide], the inhibition at 1 µM in experiment [1] (read-out: Percent Inhibition) is 98%. For the same molecule, the pIC50 in experiment [1] is more than 8.00. Besides, in experiment [2], the viability at 1.667 µM came to 5%.

`CCOc1cc(-c2ccc(F)c(F)c2)nc2cc(C(=O)NCCCc3ncc[nH]3)ccc12` [Compound I-52, 2-(3,4-difluorophenyl)-4-ethoxy-N-[3-(1H-imidazol-2-yl)propyl]quinoline-7-carboxamide]: the inhibition at 1 µM in experiment [1] (read-out: Percent Inhibition) worked out at 99%. In experiment [1], this molecule gave a pIC50 of more than 8.00. For the same molecule, the viability at 1.667 µM in experiment [2] turned out to be 4%.

Take `O=C(NCCCc1ncc[nH]1)c1ccc2c(Cc3ccccc3)nc(-c3ccc(Cl)cc3)nc2c1` [Compound I-53, 4-benzyl-2-(4-chlorophenyl)-N-[3-(1H-imidazol-2-yl)propyl]quinazoline-7-carboxamide]: the inhibition at 1 µM in experiment [1] (read-out: Percent Inhibition) was found to be 93%. In addition, the pIC50 in experiment [1] was 7.30 to 8.00. Besides, the viability at 1.667 µM in experiment [2] stood at 4%.

With `CCOc1cc(-c2ccc(F)cc2)nc2cc(C(=O)NCc3nc4ccccc4[nH]3)ccc12` [Compound I-54, N-(1H-benzimidazol-2-ylmethyl)-4-ethoxy-2-(4-fluorophenyl)quinoline-7-carboxamide], the inhibition at 0.33 µM in experiment [1] (NAMPT inhibition at compound concentration 0.33 μM, read-out: Percent Inhibition) worked out at 96%. Also, the pIC50 in experiment [1] is more than 8.00. In addition, the viability at 1.667 µM in experiment [2] was 94%.

For `CCOc1cc(-c2ccc(F)cc2)nc2cc(C(=O)NCCn3cncn3)ccc12` [Compound I-55, 4-ethoxy-2-(4-fluorophenyl)-N-[2-(1H-1,2,4-triazol-1-yl)ethyl]quinoline-7-carboxamide], the inhibition at 1 µM in experiment [1] (read-out: Percent Inhibition) was found to be 93%. Moreover, in experiment [1], the pIC50 was 7.00 to 7.30. The viability at 1.667 µM in experiment [2] is 86%.

On to `CCOc1cc(-c2ccc(F)c(Cl)c2)nc2cc(C(=O)NCCCc3ncc[nH]3)ccc12` [Compound I-56, 2-(3-chloro-4-fluorophenyl)-4-ethoxy-N-[3-(1H-imidazol-2-yl)propyl]quinoline-7-carboxamide], for which the inhibition at 1 µM in experiment [1] (read-out: Percent Inhibition) amounted to 99%. Besides, in experiment [1], the pIC50 is more than 8.00. Also, the viability at 1.667 µM in experiment [2] came to 1%.

Regarding `O=C(NCCCc1ncc[nH]1)c1ccc2c(-c3ccc(F)cc3)nc(-c3ccc(Cl)cc3)nc2c1` [Compound I-57, 2-(4-Chlorophenyl)-4-(4-fluorophenyl)-N-[3-(1H-imidazol-2-yl)propyl]quinazoline-7-carboxamide], the inhibition at 1 µM in experiment [1] (read-out: Percent Inhibition) turned out to be 99%. In addition, the pIC50 in experiment [1] is more than 8.00. For the same molecule, in experiment [2], the viability at 1.667 µM is 1%.

In the case of `CCOc1cc(C2CC2)nc2cc(C(=O)NCCCc3ncc[nH]3)ccc12` [Compound I-58, N-(3-(1H-Imidazol-2-yl)propyl)-2-cyclopropyl-4-ethoxyquinoline-7-carboxamide], in experiment [1] (read-out: Percent Inhibition), the inhibition at 1 µM came out at 96%. Besides, in experiment [1], the pIC50 is 7.30 to 8.00. In experiment [2], the viability at 1.667 µM was determined as 1%.

As for `CCOc1cc(-c2ccc(F)cc2)nc2cc(C(=O)N[C@H]3C[C@@H](c4ncc[nH]4)C3)ccc12` [Compound I-60, 4-Ethoxy-2-(4-fluorophenyl)-N-[cis-3-(1H-imidazol-2-yl)cyclobutyl]quinoline-7-carboxamide], in experiment [1] (read-out: Percent Inhibition), the inhibition at 1 µM was 99%. This molecule showed a pIC50 in experiment [1] of more than 8.00. Moreover, the viability at 1.667 µM in experiment [2] is 1%.

With `CCOc1cc(OCC)c2ccc(C(=O)NCCCc3ncc[nH]3)cc2n1` [Compound I-61, N-(3-(1H-Imidazol-2-yl)propyl)-2,4-diethoxyquinoline-7-carboxamide], the inhibition at 1 µM in experiment [1] (read-out: Percent Inhibition) amounted to 99%. Also, the pIC50 in experiment [1] was more than 8.00. Further, the viability at 1.667 µM in experiment [2] worked out at 2%.

As to `CCOc1cc(N2CCCC2)nc2cc(C(=O)NCCCc3ncc[nH]3)ccc12` [Compound I-62, 4-Ethoxy-N-[3-(1H-imidazol-2-yl)propyl]-2-(pyrrolidin-1-yl)quinoline-7-carboxamide], the inhibition at 1 µM in experiment [1] (read-out: Percent Inhibition) came to 95%. The same molecule gave a pIC50 in experiment [1] of 7.00 to 7.30. In addition, the viability at 1.667 µM in experiment [2] stood at 2%.

Regarding `Cc1nc(-c2ccc(Cl)cc2)nc2cc(C(=O)NCCCc3nnc[nH]3)ccc12` [Compound I-63, N-(3-(4H-1,2,4-triazol-3-yl)propyl)-2-(4-chlorophenyl)-4-methylquinazoline-7-carboxamide], in experiment [1] (read-out: Percent Inhibition), the inhibition at 1 µM came to 77%. For the same molecule, the pIC50 in experiment [1] is less than 7.00. The viability at 1.667 µM in experiment [2] was found to be 7%.

`COCCOCc1nc(-c2ccc(Cl)cc2)nc2cc(C(=O)NCCCc3nnc[nH]3)ccc12` [Compound I-64, N-(3-(4H-1,2,4-yriazol-3-yl)propyl)-2-(4-chlorophenyl)-4-((2-methoxyethoxy)methyl)quinazoline-7-carboxamide]: the inhibition at 1 µM in experiment [1] (read-out: Percent Inhibition) was 91%. The molecule further showed a pIC50 in experiment [1] of 7.00 to 7.30. Moreover, the viability at 1.667 µM in experiment [2] is 1%.

On to `CCOc1c(F)c(-c2ccnc(OC)c2)nc2cc(C(=O)NCCCc3[nH]nnc3C)ccc12` [Compound I-65, 4-ethoxy-3-fluoro-2-(2-methoxypyridin-4-yl)-N-[3-(4-methyl-1H-1,2,3-triazol-5-yl)propyl]quinoline-7-carboxamide], for which, in experiment [1] (read-out: Percent Inhibition), the inhibition at 1 µM was determined as 91%. For the same molecule, the pIC50 in experiment [1] is 7.00 to 7.30. Moreover, in experiment [2], the viability at 1.667 µM came out at 1%.

For `COCCOc1cc(-c2ccc(F)cc2)nc2cc(C(=O)NCCCc3n[nH]nc3C)ccc12` [Compound I-66, 2-(4-fluorophenyl)-4-(2-methoxyethoxy)-N-[3-(5-methyl-2H-1,2,3-triazol-4-yl)propyl]quinoline-7-carboxamide], the inhibition at 1 µM in experiment [1] (read-out: Percent Inhibition) was 94%. The pIC50 in experiment [1] is 7.30 to 8.00. Moreover, the viability at 1.667 µM in experiment [2] was determined as 2%.

With `COCCOc1cc(-c2ccnc(OC)c2)nc2cc(C(=O)NCc3ccn4ncnc4c3)ccc12` [Compound I-67], the inhibition at 1 µM in experiment [1] (read-out: Percent Inhibition) was found to be 85%. For the same molecule, in experiment [2], the viability at 1.667 µM was 3%.

For the molecule `CCOc1cc(-c2cc(OC)ncc2F)nc2cc(C(=O)NCCCc3[nH]nnc3C)ccc12` [Compound I-68, 4-ethoxy-2-(5-fluoro-2-methoxypyridin-4-yl)-N-[3-(4-methyl-1H-1,2,3-triazol-5-yl)propyl]quinoline-7-carboxamide], the inhibition at 1 µM in experiment [1] (read-out: Percent Inhibition) was 92%. The molecule further had a pIC50 in experiment [1] of 7.30 to 8.00. In experiment [2], the viability at 1.667 µM amounted to 1%.

With `COCCOc1cc(-c2ccnc(C)c2)nc2cc(C(=O)NCc3ccn4ncnc4c3)ccc12` [Compound I-69, 4-(2-methoxyethoxy)-2-(2-methylpyridin-4-yl)-N-([1,2,4]triazolo[1,5-a]pyridin-7-ylmethyl)quinoline-7-carboxamide], the inhibition at 1 µM in experiment [1] (read-out: Percent Inhibition) was 86%. This molecule also showed a pIC50 in experiment [1] of less than 7.00. Further, in experiment [2], the viability at 1.667 µM is 4%.

For the molecule `CCOc1cc(-c2ccnc(OC)c2)nc2cc(C(=O)NCc3ccn4ncnc4c3)ccc12` [Compound I-70, 4-ethoxy-2-(2-methoxypyridin-4-yl)-N-([1,2,4]triazolo[1,5-a]pyridin-7-ylmethyl)quinoline-7-carboxamide], the inhibition at 1 µM in experiment [1] (read-out: Percent Inhibition) was 99%. The same molecule had a pIC50 in experiment [1] of more than 8.00. In addition, in experiment [2], the viability at 1.667 µM is 1%.

With `CCOc1cc(-c2ccnc(OC)c2)nc2cc(C(=O)NCCCc3[nH]nnc3C)ccc12` [Compound I-71, 4-ethoxy-2-(2-methoxypyridin-4-yl)-N-[3-(4-methyl-1H-1,2,3-triazol-5-yl)propyl]quinoline-7-carboxamide], in experiment [1] (read-out: Percent Inhibition), the inhibition at 1 µM came out at 97%. Also, the pIC50 in experiment [1] is 7.30 to 8.00. For the same molecule, in experiment [2], the viability at 1.667 µM was 2%.

These data come from US10323018B2 (Millennium Pharmaceuticals, Inc., priority 2015, dated 2019).
